Starred links: 1 amine or outer side, 2 acyl side, 3 side chain; linkers in the order of their positions; H or OH if unused. Non-standard residues stand in square brackets, D forms with d. Residues, ends and D or L forms follow the SMILES beside them. X1 = CCNC[C@@H](C(=O)[*:2])N(C)[*:1]; Sar = CNCC(=O)O

The record followed here is EP0328090A2 (priority 1988, dated 1989).

One assay concerns the target T1, LHRH receptors (Rattus norvegicus, UniProt P30969).
T1 sequence (P30969 1-327): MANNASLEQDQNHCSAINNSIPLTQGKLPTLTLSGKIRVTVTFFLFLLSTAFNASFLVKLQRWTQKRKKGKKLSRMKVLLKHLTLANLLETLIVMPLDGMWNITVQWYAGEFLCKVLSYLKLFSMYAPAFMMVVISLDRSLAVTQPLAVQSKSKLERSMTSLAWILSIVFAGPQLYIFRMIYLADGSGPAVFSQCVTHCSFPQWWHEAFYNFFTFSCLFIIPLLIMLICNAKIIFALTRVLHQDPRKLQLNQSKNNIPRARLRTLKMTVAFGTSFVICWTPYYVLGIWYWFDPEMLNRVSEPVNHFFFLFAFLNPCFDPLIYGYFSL
The assay can be described thus: Radioligand receptor binding assay. The conditions noted are these: rat pituitary membranes; radioiodinated [D-Leu⁶-des Gly¹⁰]-LHRH ethyl amide 50pM; 2 hours at 4°C; read-out: Receptor Binding pkI (converted). As for the experimental part:
(§1) The biological activities of the compounds of the invention are determined by the following assays: • (a) Receptor Binding. A radioligand receptor binding assay is performed in a similar way to that described in the literature (J. Marion et al., Mol. Pharmacol. 19 399 (1981)). […] The radioligand (50pM), receptors, and compounds to be tested are coincubated for 2 hours at 4°C. Bound ligand is separated from free ligand via centrifugation and aspiration. […] This assay has been adopted from the literature (H.A. Jinnah and P.M. Conn, Endrocrinology 118 2599 (1986)). Rat pituitaries are removed from immature female rats, minced, and dissociated with collagenase/hyaluronidase. They are allowed to attach to 48-well microtiter plates for 48-72 hours, then are exposed to test compounds for 3 hours at 37°C. The medium is assayed for released LH by RIA (radioimmunoassay). […] The compound to be tested is administered to castrated rats intraveneously and the serum LH concentration at various time points is measured by RIA. The time inteorated LH response is calculated and the dose producing half-maximal LH release (ED₅₀) is reported. • (d) Stability against enzymatic degradation. The intestinal stability of the compounds of the invention was determined using in vitro rat jejunum in a reperfusion system. The fractional mucosal loss was an indicator of the relative rate if degradation of the compounds thirty minutes after introduction of the luminal bath.
Turning to `CC(C)C[C@H](NC(=O)[C@@H](Cc1ccc2ccccc2c1)NC(=O)[C@H](Cc1ccc(O)cc1)NC(=O)[C@H](CO)N(C)C(=O)[C@H](Cc1c[nH]c2ccccc12)NC(=O)[C@H](Cc1c[nH]cn1)NC(=O)[C@@H]1CCC(=O)N1)C(=O)N[C@@H](CCCN=C(N)N)C(=O)N1CCC[C@H]1C(=O)NCC(N)=O` [Ex. 3, (pyro)Glu-His-Trp-N-Me-Ser-Tyr-D-(2)-Nal-Leu-Arg-Pro-Gly-NH₂], the Ki was 0.0398 nM.
In the case of `CCNC(=O)[C@@H]1CCCN1C(=O)[C@H](CCCNC(=N)N)NC(=O)[C@H](CC(C)C)N1CC[C@H](NC(=O)[C@H](Cc2ccc(O)cc2)NC(=O)[C@H](CO)N(C)C(=O)[C@H](Cc2c[nH]c3ccccc23)NC(=O)[C@H](Cc2c[nH]cn2)NC(=O)[C@@H]2CCC(=O)N2)C1=O` [Ex. 13, (pyro)-Glu-His-Trp-N-Me-Ser-Tyr-6,7-[2-(S-3-amino-2-oxo-pyrrolidin-1-yl)-S-2-Isopropylmethylacetyl]-Arg-Pro-NHEt], the Ki was 0.038 nM.
`CCNC(=O)[C@@H]1CCCN1C(=O)[C@H](CCCN=C(N)N)NC(=O)[C@H](CC(C)C)NC(=O)[C@@H](Cc1c[nH]c2ccccc12)NC(=O)[C@H](Cc1ccc(O)cc1)N(C)C(=O)[C@H](CO)NC(=O)[C@H](Cc1c[nH]c2ccccc12)NC(=O)[C@H](Cc1c[nH]cn1)NC(=O)[C@@H]1CCC(=O)N1` [Ex. 20, (pyro)Glu-His-Trp-Ser-N-Me-Tyr-D-Trp-Leu-Arg-ProNHEt]: the Ki is 0.0158 nM.
`CCNC(=O)[C@@H]1CCCN1C(=O)[C@H](CCCN=C(N)N)NC(=O)[C@H](CC(C)C)NC(=O)[C@@H](CC(C)C)N(C)C(=O)[C@H](Cc1ccc(O)cc1)NC(=O)[C@H](CO)NC(=O)[C@H](Cc1c[nH]c2ccccc12)NC(=O)[C@H](Cc1cnc[nH]1)NC(=O)[C@@H]1CCC(=O)N1` [Ex. 22, (pyro)Glu-His-Trp-Ser-Tyr-N-Me-D-Leu-Leu-Arg-ProNHEt]: the Ki is 0.692 nM.

In another assay the test system is serum LH concentration. The assay can be described thus: In vivo LH release in castrated rats (serum LH by RIA). The conditions noted are these: i.v., dose producing half-maximal time integrated LH release. As for the experimental part: as §1
Turning to `CCNC(=O)CC[C@H](NC(=O)NCC)C(=O)N[C@@H](Cc1c[nH]cn1)C(=O)N[C@@H](Cc1c[nH]c2ccccc12)C(=O)N(C)[C@@H](CO)C(=O)N[C@@H](Cc1ccc(O)cc1)C(=O)N[C@H](Cc1c[nH]c2ccccc12)C(=O)N[C@@H](CC(C)C)C(=O)N[C@@H](CCCNC(=N)N)C(=O)N1CCC[C@H]1C(=O)NCC` [Ex. 12, (2)-N-(Ethylaminocarbonyl)-(5)-N-ethylamido-Glu-His-Trp-N-Me-Ser-Tyr-D-Trp-Leu-Arg-Pro-NHEt], the ED₅₀ is 9.90 µg/kg.
Same read-out and setting: with `CC(C)C[C@H](NC(=O)CNC(=O)[C@H](Cc1ccc(O)cc1)NC(=O)[C@H](CO)NC(=O)[C@H](Cc1c[nH]c2ccccc12)NC(=O)[C@H](Cc1c[nH]cn1)NC(=O)[C@@H]1CCC(=O)N1)C(=O)N[C@@H](CCCNC(=N)N)C(=O)N1CCC[C@H]1C(=O)NCC(N)=O` [LHRH, reference compound] the figure was 100 µg/kg; with `CCNC[C@@H](C(=O)N[C@@H](Cc1ccc(O)cc1)C(=O)N[C@H](Cc1c[nH]c2ccccc12)C(=O)N[C@@H](CC(C)C)C(=O)N[C@@H](CCCNC(=N)N)C(=O)N1CCC[C@H]1C(=O)NCC)N(C)C(=O)[C@H](Cc1c[nH]c2ccccc12)NC(=O)[C@H](Cc1c[nH]cn1)NC(=O)CN(C)C(C)=O` [Ex. 7, N-Ac-Sar-His-Trp-(3)-N-Et-(2)-N-Me-Dap-Tyr-D-Trp-Leu-Arg-Pro-NHEt] (Ac-[Sar]HW[X1]Y[dW]LRP-NHEt), 9.64 µg/kg.
